The test deals with T1, GLUT1 (Homo sapiens, UniProt P11166).
T1 sequence (P11166 1-492): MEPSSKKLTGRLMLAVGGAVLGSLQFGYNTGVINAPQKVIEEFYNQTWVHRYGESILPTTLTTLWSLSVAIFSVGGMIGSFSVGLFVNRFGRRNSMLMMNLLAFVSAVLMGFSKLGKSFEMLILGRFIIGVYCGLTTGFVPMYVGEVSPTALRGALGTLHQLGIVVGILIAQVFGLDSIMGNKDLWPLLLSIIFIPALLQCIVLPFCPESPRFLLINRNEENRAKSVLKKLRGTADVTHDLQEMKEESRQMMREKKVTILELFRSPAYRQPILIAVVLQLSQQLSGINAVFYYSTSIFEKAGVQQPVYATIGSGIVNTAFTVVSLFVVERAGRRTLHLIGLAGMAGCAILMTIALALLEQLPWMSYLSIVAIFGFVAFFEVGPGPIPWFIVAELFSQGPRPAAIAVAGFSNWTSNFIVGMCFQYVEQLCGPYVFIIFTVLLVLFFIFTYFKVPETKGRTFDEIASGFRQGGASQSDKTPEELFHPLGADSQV
Kind of test: Indirect measurement of GLUT1 activity by quantification of intracellular ATP levels (glucose induced ATP increase). The class given is cell-based. Details: endogenous in cells; host or cells: DLD1 or CHO-K1. The note with it: read-out: IC50 regarding glucose induced ATP increase (GLUT1 inhibition). The method in brief: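 DLD1 or CHO-K1 cells were starved overnight in glucose-free medium with 1% FCS, then combined with an oxidative phosphorylation inhibitor. GLUT1 activity was read as glucose-induced ATP increase, GLUT2 as fructose-induced. Intracellular ATP was quantified by CellTiter-Glo luminescence.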
Usually IC50 stands for the point on the concentration scale where inhibition reaches its midpoint. For `CC(C)c1nn(Cc2ccc(C#N)cc2)c(C(F)(F)F)c1NC(=O)c1cc(C(N)=O)nc2ccccc12` [Example 319, N^4-[1-(4-cyanobenzyl)-3-isopropyl-5-(trifluoromethyl)-1H-pyrazol-4-yl]quinoline-2,4-dicarboxamide], the IC50 turned out to be 1 nM.

With `CCc1nc(Cn2nc(C(F)(F)F)c(NC(=O)c3cc(C(N)=O)nc4ccccc34)c2C)no1` [Example 1535], the IC50 worked out at 22.5 nM.

In the case of `Cc1cccnc1Cn1nc(C)c(NC(=O)c2cc(C(F)(F)F)nc3ccc(Br)cc23)c1C` [Example 116, 6-bromo-N-{3,5-dimethyl-1-[(3-methylpyridin-2-yl)methyl]-1H-pyrazol-4-yl}-2-(trifluoromethyl)quinoline-4-carboxamide], the IC50 amounted to 889 nM.

With `COc1cc(C(=O)Nc2c(C)nn(Cc3ccccc3OC(F)(F)F)c2C)c2ccccc2n1` [Example 1289], the IC50 turned out to be 6250 nM.

Consider `Cc1c(NC(=O)c2cc(C(N)=O)nc3ccccc23)c(C(F)(F)F)nn1Cc1c(F)cccc1F` [Example 1628], for which the IC50 is 15.3 nM.

With `Cc1c(NC(=O)c2cc(C(F)(F)F)nc3ccc(Br)cc23)c(C(F)(F)F)nn1Cc1ccc(F)c(F)c1` [Example 197, 6-bromo-N-[1-(3,4-difluorobenzyl)-5-methyl-3-(trifluoromethyl)-1H-pyrazol-4-yl]-2-(trifluoromethyl)quinoline-4-carboxamide], the IC50 came to 333 nM.

For the compound `Cc1nn(Cc2ccc(F)cc2)c(C)c1NC(=O)c1cc(C2CC2)nc2cc(Br)ccc12` [Example 100, 7-bromo-2-cyclopropyl-N-[1-(4-fluorobenzyl)-3,5-dimethyl-1H-pyrazol-4-yl]quinoline-4-carboxamide], the IC50 is 371 nM.

For the compound `Cc1nn(Cc2ccc(C(=O)NCc3ccc(-c4nnn[nH]4)cc3)cc2)c(C)c1NC(=O)c1cc(C(F)(F)F)nc2ccc(Br)cc12` [Example 1060], the IC50 worked out at 15.8 nM.

As for `Cc1nn(Cc2ccc(C#N)cc2F)c(C)c1NC(=O)c1cc(C(F)(F)F)nc2ccc(Br)cc12` [Example 1349], the IC50 worked out at 7.5 nM.

On to `C#CCNC(=O)c1ccc(Cn2nc(C)c(NC(=O)c3cc(C(F)(F)F)nc4ccc(Br)cc34)c2C)cc1` [Example 1141], for which the IC50 was 108 nM.

On to `CCCCCN(CCO)C(=O)c1ccc(Cn2nc(C)c(NC(=O)c3cc(C(F)(F)F)nc4ccc(Br)cc34)c2C)cc1` [Example 1228], for which the IC50 is 962 nM.

Consider `COc1ccccc1Cn1nc(C(F)(F)F)c(NC(=O)c2cc(C(N)=O)nc3cccc(F)c23)c1C` [Example 1493], for which the IC50 was 69.6 nM.

As to `Cc1nn(CC(=O)N(C)c2ccc(F)cc2)c(C)c1NC(=O)c1cc(C(N)=O)nc2ccccc12` [Example 1693], the concentration for half-maximal inhibition (IC50) was 43.6 nM.

`CCc1cc(Cn2nc(C)c(NC(=O)c3cc(C(N)=O)nc4cc(F)ccc34)c2C)on1` [Example 1532]: the half-inhibitory concentration (IC50) was found to be 16.1 nM.

Turning to `CCS(=O)(=O)N1CCC(Cn2nc(C)c(NC(=O)c3cc(C(N)=O)nc4cc(F)ccc34)c2C)CC1` [Example 1534], the IC50 was determined as 19.7 nM.

For `Cc1c(NC(=O)c2cc([S+](C)[O-])nc3ccccc23)c(C(F)(F)F)nn1Cc1ccc(C#N)cc1` (racemic) [Example 383, (±)-N-[1-(4-cyanobenzyl)-5-methyl-3-(trifluoromethyl)-1H-pyrazol-4-yl]-2-(methylsulfinyl)quinoline-4-carboxamide], the IC50 was 8.3 nM.

In the case of `COc1cc(C(=O)Nc2c(C)nn(Cc3cccc(C)c3)c2C)c2ccccc2n1` [Example 76, N-[3,5-dimethyl-1-(3-methylbenzyl)-1H-pyrazol-4-yl]-2-methoxyquinoline-4-carboxamide], the IC50 came to 188 nM.

In the case of `COc1ccc(Cn2nc(C(F)(F)F)c(NC(=O)c3cc(C(F)(F)F)nc4ccc(Br)cc34)c2C)cc1` [Example 1035], the IC50 came to 5 nM.

As to `Cc1nn(Cc2ccc(F)cc2)c(C)c1NC(=O)c1cc(C(F)(F)F)nc2ccc(NS(C)(=O)=O)cc12` [Example 1257], the IC50 turned out to be 2050 nM.

In the case of `Cc1cc(Cn2nc(C(F)(F)F)c(NC(=O)c3cc(C(N)=O)nc4cc(F)ccc34)c2C)no1` [Example 1539], the IC50 was 47.3 nM.

`Cc1nn(Cc2cc(C3CC3)on2)c(C)c1NC(=O)c1cc(C(N)=O)nc2ccccc12` [Example 419, N^4-{1-[(5-cyclopropyl-1,2-oxazol-3-yl)methyl]-3,5-dimethyl-1H-pyrazol-4-yl}quinoline-2,4-dicarboxamide]: the IC50 came to 4.2 nM.

Take `Cc1c(NC(=O)c2cc(C(N)=O)nc3cc(F)ccc23)c(C(F)(F)F)nn1Cc1ncc(C#N)cn1` [Example 423, N^4-{1-[(5-cyanopyrimidin-2-yl)methyl]-5-methyl-3-(trifluoromethyl)-1H-pyrazol-4-yl}-7-fluoroquinoline-2,4-dicarboxamide]: the IC50 was determined as 6.7 nM.

As for `Cc1nn(Cc2cccc(C(C)O)c2)c(C)c1NC(=O)c1cc(C(N)=O)nc2ccccc12` (racemic) [Example 1645], the IC50 was 319 nM.

Turning to `Cc1nn(Cc2ccc(CC#N)cc2)c(C)c1NC(=O)c1cc(C(N)=O)nc2cc(F)ccc12` [Example 1613], the IC50 was 0.7 nM.

In the case of `Cc1c(NC(=O)c2cc(C(N)=O)nc3cc(F)ccc23)c(C(F)(F)F)nn1Cc1ccc(C(=O)NCCN(C)C)cc1` [Example 374, N^4-[1-(4-{[2-(dimethylamino)ethyl]carbamoyl}benzyl)-5-methyl-3-(trifluoromethyl)-1H-pyrazol-4-yl]-7-fluoroquinoline-2,4-dicarboxamide], the IC50 came to 895 nM.

With `Cc1nn(Cc2ccccc2C#N)c(C)c1NC(=O)c1cc(C(N)=O)nc2c(F)cc(Cl)cc12` [Example 269, 6-chloro-N^4-[1-(2-cyanobenzyl)-3,5-dimethyl-1H-pyrazol-4-yl]-8-fluoroquinoline-2,4-dicarboxamide], the IC50 came out at 1.5 nM.

On to `Cc1nn(Cc2ccc(F)cc2)c(C)c1NC(=O)c1cc(C(N)=O)nc2ccccc12` [Example 122, N^4-[1-(4-fluorobenzyl)-3,5-dimethyl-1H-pyrazol-4-yl]quinoline-2,4-dicarboxamide], for which the IC50 is 1.9 nM.

Turning to `Cc1nn(Cc2ccncc2C#N)c(C)c1NC(=O)c1cc(C(N)=O)nc2cc(F)c(Cl)cc12` [Example 285, 6-chloro-N^4-{1-[(3-cyanopyridin-4-yl)methyl]-3,5-dimethyl-1H-pyrazol-4-yl}-7-fluoroquinoline-2,4-dicarboxamide], the IC50 was found to be 3.4 nM.

As for `Cc1nn(Cc2cccc(OC(F)(F)F)c2)c(C)c1NC(=O)c1cc(C(N)=O)nc2cc(F)ccc12` [Example 1586], the IC50 was determined as 36.9 nM.

Regarding `Cc1nn(CC2CCNCC2)c(C)c1NC(=O)c1cc(C(F)(F)F)nc2ccc(Br)cc12` [Example 1222], the IC50 is 883 nM.

On to `COC(=O)c1ccc(Cn2nc(C(F)(F)F)c(NC(=O)c3cc(C(N)=O)nc4cc(F)ccc34)c2C)cc1` [Example 367, methyl 4-{[4-{[(2-carbamoyl-7-fluoroquinolin-4-yl)carbonyl]amino}-5-methyl-3-(trifluoromethyl)-1H-pyrazol-1-yl]methyl}benzoate], for which the IC50 amounted to 2.3 nM.

With `Cc1nn(CCOc2ccc(C#N)cc2)c(C)c1NC(=O)c1cc(C(N)=O)nc2ccccc12` [Example 295, N^4-{1-[2-(4-cyanophenoxy)ethyl]-3,5-dimethyl-1H-pyrazol-4-yl}quinoline-2,4-dicarboxamide], the half-maximal inhibitory concentration (IC50) came to 1020 nM.

On to `Cc1nn(Cc2ccc(OC(F)(F)F)cc2)c(C)c1NC(=O)c1cc(C(F)(F)F)nc2ccc(Br)cc12` [Example 56, 6-bromo-N-{3,5-dimethyl-1-[4-(trifluoromethoxy)benzyl]-1H-pyrazol-4-yl}-2-(trifluoromethyl)quinoline-4-carboxamide], for which the IC50 was determined as 60.4 nM.

Turning to `Cc1nn(Cc2ccc(C#N)cc2)c(C)c1NC(=O)c1cc(C(N)=O)nc2cc(F)c(Cl)cc12` [Example 212, 6-chloro-N^4-[1-(4-cyanobenzyl)-3,5-dimethyl-1H-pyrazol-4-yl]-7-fluoroquinoline-2,4-dicarboxamide], the IC50 was 0.6 nM.

In the case of `Cc1nn(Cc2c(F)cc(F)cc2F)c(C)c1NC(=O)c1cc(C(F)(F)F)nc2c(Cl)cc(Cl)cc12` [Example 57, 6,8-dichloro-N-[3,5-dimethyl-1-(2,4,6-trifluorobenzyl)-1H-pyrazol-4-yl]-2-(trifluoromethyl)quinoline-4-carboxamide], the 50% inhibitory concentration (IC50) turned out to be 66.7 nM.

Turning to `COc1ccc(Cn2nc(C)c(NC(=O)c3cc(C(N)=O)nc4c(F)cc(Cl)cc34)c2C)cc1` [Example 276, 6-chloro-8-fluoro-N^4-[1-(4-methoxybenzyl)-3,5-dimethyl-1H-pyrazol-4-yl]quinoline-2,4-dicarboxamide], the IC50 worked out at 1.3 nM.

Regarding `Cc1c(NC(=O)c2cc(S(C)(=O)=O)nc3ccccc23)c(C(F)(F)F)nn1Cc1ccc(C#N)cc1` [Example 384, N-[1-(4-cyanobenzyl)-5-methyl-3-(trifluoromethyl)-1H-pyrazol-4-yl]-2-(methylsulfonyl)quinoline-4-carboxamide], the IC50 was determined as 3.6 nM.

`CCc1nn(Cc2ccc(F)cc2)c(CC)c1NC(=O)c1cc(C(F)(F)F)nc2ccc(Br)cc12` [Example 1388]: the IC50 turned out to be 1530 nM.

For the compound `CNC(=O)c1nn(Cc2ccc(F)cc2)c(C)c1NC(=O)c1cc(C(N)=O)nc2ccccc12` [Example 1231], the IC50 came out at 1040 nM.

For the origin of these results see patent publication US20170037028A1 (BAYER PHARMA AKTIENGESELLSCHAFT, priority 2013, published 2017).
